From PubChem BioAssay (NCI)
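Interpolation was linear, between the two tested concentrations surrounding the appropriate level; five concentrations were tested over 48 hours in 96-well plates. At the GI50, growth is halved. At the TGI there is no net growth.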

What was measured:
Experiment in all cases: DTP human tumour cell line panel, 48 h
SK-MEL-2 melanoma = system: SK-MEL-2 melanoma
SK-MEL-28 melanoma = system: SK-MEL-28 melanoma
OVCAR-5 ovarian = system: OVCAR-5 ovarian
SNB-75 CNS = system: SNB-75 CNS
UO-31 renal = system: UO-31 renal
NCI-H522 lung = system: NCI-H522 lung
HCT-116 colon = system: HCT-116 colon
SN12C renal = system: SN12C renal
HCT-15 colon = system: HCT-15 colon
T-47D breast = system: T-47D breast
OVCAR-3 ovarian = system: OVCAR-3 ovarian
OVCAR-4 ovarian = system: OVCAR-4 ovarian
EKVX NSCLC = system: EKVX NSCLC
OVCAR-8 ovarian = system: OVCAR-8 ovarian
COLO 205 colon = system: COLO 205 colon
NCI-H226 lung = system: NCI-H226 lung
NCI-H460 lung = system: NCI-H460 lung
MCF7 breast = system: MCF7 breast
UACC-62 melanoma = system: UACC-62 melanoma
SF-268 CNS = system: SF-268 CNS
SF-295 CNS = system: SF-295 CNS
RPMI-8226 leukemia = system: RPMI-8226 leukemia
KM12 colon = system: KM12 colon
UACC-257 melanoma = system: UACC-257 melanoma
786-0 renal = system: 786-0 renal
NCI/ADR-RES ovarian = system: NCI/ADR-RES ovarian
DU-145 prostate = system: DU-145 prostate

O=C1CS/C(=N/S(=O)(=O)c2ccc(N3N=C4c5ccccc5CC4C3c3cccs3)cc2)N(c2ccccc2)C1 (stereo not drawn)
GI50 (SK-MEL-2 melanoma): 60.2 µM
TGI (SK-MEL-2 melanoma): > 100 µM
GI50 (SK-MEL-28 melanoma): > 100 µM
TGI (SK-MEL-28 melanoma): > 100 µM
GI50 (OVCAR-5 ovarian): 34.6 µM
TGI (OVCAR-5 ovarian): > 100 µM
GI50 (SNB-75 CNS): > 100 µM
TGI (SNB-75 CNS): > 100 µM
GI50 (UO-31 renal): 69.3 µM
TGI (UO-31 renal): > 100 µM
GI50 (NCI-H522 lung): 23.8 µM
TGI (NCI-H522 lung): > 100 µM
GI50 (HCT-116 colon): 12.5 µM
TGI (HCT-116 colon): 27.4 µM
GI50 (SN12C renal): 34.3 µM
TGI (SN12C renal): > 100 µM
GI50 (HCT-15 colon): 35.5 µM
TGI (HCT-15 colon): > 100 µM
GI50 (T-47D breast): 69.2 µM
TGI (T-47D breast): > 100 µM
GI50 (OVCAR-3 ovarian): > 100 µM
TGI (OVCAR-3 ovarian): > 100 µM
GI50 (OVCAR-4 ovarian): > 100 µM
TGI (OVCAR-4 ovarian): > 100 µM
GI50 (EKVX NSCLC): 39.5 µM
TGI (EKVX NSCLC): > 100 µM
GI50 (OVCAR-8 ovarian): 25.4 µM
TGI (OVCAR-8 ovarian): > 100 µM
GI50 (COLO 205 colon): 57.2 µM
TGI (COLO 205 colon): > 100 µM
GI50 (NCI-H226 lung): 22.3 µM
TGI (NCI-H226 lung): 93.8 µM
GI50 (NCI-H460 lung): > 100 µM
TGI (NCI-H460 lung): > 100 µM
GI50 (MCF7 breast): 88.8 µM
TGI (MCF7 breast): > 100 µM
GI50 (UACC-62 melanoma): 16.1 µM
TGI (UACC-62 melanoma): 38.9 µM
GI50 (SF-268 CNS): > 100 µM
TGI (SF-268 CNS): > 100 µM
GI50 (SF-295 CNS): 32.7 µM
TGI (SF-295 CNS): > 100 µM
GI50 (RPMI-8226 leukemia): 31 µM
TGI (RPMI-8226 leukemia): > 100 µM
GI50 (KM12 colon): 28.4 µM
TGI (KM12 colon): 88.4 µM
GI50 (UACC-257 melanoma): 42.3 µM
TGI (UACC-257 melanoma): > 100 µM
GI50 (786-0 renal): 22.1 µM
TGI (786-0 renal): > 100 µM
GI50 (NCI/ADR-RES ovarian): > 100 µM
TGI (NCI/ADR-RES ovarian): > 100 µM
GI50 (DU-145 prostate): 30.7 µM
